Reference: patent US10988433B2, “Cyclohexyl GPR40 agonists for the treatment of type II diabetes” (Janssen Pharmaceutica NV, priority 2016, dated 2021)
pEC50: −log10 of the molar value.

Columns and labels:
[1] = target: T1, rat GPR40 (Rattus norvegicus, UniProt Q8K3T4); assay: GPR40 calcium flux assay, HEK293 cells stably expressing rat GPR40; format: cell-based; conditions: transfected HEK293 cells stably expressing rat GPR40, Fluo 8 dye, read-out: rGPR40 Ca2+ Assay EC50
T1 construct: expressed in transfected cells
T1 sequence (Q8K3T4 whole entry): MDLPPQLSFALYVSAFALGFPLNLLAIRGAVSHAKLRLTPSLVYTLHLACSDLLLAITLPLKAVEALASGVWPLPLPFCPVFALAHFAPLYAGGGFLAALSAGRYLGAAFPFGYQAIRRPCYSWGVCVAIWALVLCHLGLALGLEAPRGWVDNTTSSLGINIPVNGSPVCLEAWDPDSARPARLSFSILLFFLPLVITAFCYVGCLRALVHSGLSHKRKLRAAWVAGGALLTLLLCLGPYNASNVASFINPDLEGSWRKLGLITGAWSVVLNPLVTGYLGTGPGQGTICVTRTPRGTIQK

[2] = system: Male SD rats; assay: Oral Glucose Tolerance Test, Version A; format: in vivo, rat; conditions: Assay Version A: fasted male SD rats, dosed 30 min prior to oGTT (glucose 2 g/kg po); blood glucose AUC t=0 to 120 min vs vehicle
Protocol: Male SD rats (200-250 g) were housed 2 per cage in a temperature-controlled room with a 12-hour light/dark cycle. They were allowed ad libitum access to water and fed with normal rodent chow. The night before the oral glucose tolerance test (oGTT), the rats were transferred to clean cages and fasted overnight. On the morning of the oGTT, the rats were weighed and randomized into groups based on fasted blood glucose and body weight. Rats were dosed with vehicle (0.5% methocel) or compounds thirty min prior to the oGTT (glucose, 2 g/kg, po). Blood was collected from the tail vein at 0, 10, 30, 60 and 120 minutes after glucose challenge to measure blood glucose; plasma was used to determine insulin levels. The area under the curve for blood glucose excursion was calculated from t=0 to t=120 minutes. Percent lowering of glucose was calculated from the AUC data with respect to the vehicle-treated group.

[3] = target: T2, human GPR40 (Homo sapiens, UniProt O14842); assay: GPR40 calcium flux assay, HEK293 cells stably expressing human GPR40; format: cell-based; conditions: transfected HEK293 cells stably expressing human GPR40, Fluo 8 dye, read-out: hGPR40 Ca2+ Assay EC50
T2 construct: expressed in transfected cells
T2 sequence (O14842 whole entry): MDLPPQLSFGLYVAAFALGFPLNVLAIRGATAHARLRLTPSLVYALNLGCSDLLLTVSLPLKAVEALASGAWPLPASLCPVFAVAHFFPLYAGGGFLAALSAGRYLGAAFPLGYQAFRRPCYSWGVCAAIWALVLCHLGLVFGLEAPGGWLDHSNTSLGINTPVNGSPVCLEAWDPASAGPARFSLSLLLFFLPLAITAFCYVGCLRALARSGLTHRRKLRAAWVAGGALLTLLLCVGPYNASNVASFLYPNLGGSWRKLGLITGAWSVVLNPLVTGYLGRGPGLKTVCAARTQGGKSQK

[4] = system: Male ZDF rats; assay: Oral Glucose Tolerance Test, Version B; format: in vivo, rat; conditions: Assay Version B: fasted male ZDF rats, compound 10 mg/kg 120 min prior to OGTT (glucose 1 g/kg po); blood glucose AUC t=0 to 120 min vs vehicle
Protocol: Male ZDF rats (7 weeks old, 200-240 g) were housed 2 per cage in a temperature-controlled room with a 12-hour light/dark cycle. They were allowed ad libitum access to water and fed with 5008 rodent chow. The night before the oral glucose tolerance test (OGTT), the rats were transferred to clean cages and fasted overnight. On the morning of the OGTT, the rats were weighed and randomized into groups based on fasted blood glucose and body weight. Rats were dosed with vehicle (0.5% Methocel) or compound (10 mg/kg) 120 min prior to the OGTT (glucose, 1 g/kg, po). Blood was collected from the tail vein at 0, 10, 30, 60 and 120 minutes after glucose challenge to measure blood glucose; plasma was used to determine insulin levels. The area under the curve for blood glucose excursion was calculated from t=0 to t=120 minutes. Percent lowering of glucose was calculated from the AUC data with respect to the vehicle-treated group.

SMILES | pEC50 [1] | Percent Lowering of Glucose (AUC compound vs. AUC Vehicle) [2] | pEC50 [3] | Percent Lowering of Glucose (AUC compound vs. AUC Vehicle) [4]
COc1ccc(F)c([C@H]2CC[C@H](COc3cccc([C@@H](CC(=O)O)C4CC4)c3)CC2)c1 [Cpd 2, (S)-3-Cyclopropyl-3-(3-(((1r,4 S)-4-(2-fluoro-5-methoxyphenyl)cyclohexyl)methoxy)phenyl) propanoic acid] | 8.47 | 33% | 9.10 | –
COc1cc([C@H]2CC[C@H](COc3cc([C@@H](CC(=O)O)C4CC4)ccn3)CC2)c(F)cn1 [Cpd 25, (S)-3-Cyclopropyl-3-(2-(((1r,4S)-4-(5-fluoro-2-methoxypyridin-4-yl)cyclohexyl)methoxy)pyridin-4-yl)propanoic acid] | 8.89 | 28% | 8.28 | –
COc1ccc(F)c([C@H]2CC[C@@H](COc3cccc([C@@H](CC(=O)O)C4CC4)c3)CC2)c1 [Cpd 1, (S)-3-Cyclopropyl-3-(3-(((1s,4R)-4-(2-fluoro-5-methoxyphenyl)cyclohexyl)methoxy)phenyl) propanoic acid] | 6.98 | 11% | 7.44 | –
COc1ccc(F)c([C@H]2CC[C@H](COc3cc([C@@H](CC(=O)O)C4CC4)ccn3)CC2)c1 [Cpd 27, (S)-3-Cyclopropyl-3-(2-(((1r,4s)-4-(2-fluoro-5-methoxyphenyl)cyclohexyl)methoxy)pyridin-4-yl)propanoic acid] | 9.05 | 32% | 9.70 | –
COc1ccc(F)c([C@H]2CC[C@H](COc3cccc([C@H](C4CC4)[C@@](C)(F)C(=O)O)c3)CC2)c1 [Cpd 59, (2R,3S)-3-Cyclopropyl-2-fluoro-3-(3-(((1r,4S)-4-(2-fluoro-5-methoxyphenyl)cyclohexyl)methoxy)phenyl)-2-methylpropanoic acid] | 9.14 | – | 9.57 | 48%
COc1ccc(F)c([C@H]2CC[C@H](COc3cccc([C@@H](Cc4nnn[nH]4)C4CC4)c3)CC2)c1 [Cpd 17, 5-((S)-2-Cyclopropyl-2-(3-(((1r,4S)-4-(2-fluoro-5-methoxyphenyl)cyclohexyl)methoxy)phenyl)ethyl)-1H-tetrazole] | 6.41 | – | 7.35 | –
COc1ccc(F)c([C@H]2CC[C@H](COc3cccc([C@H](CC(=O)O)C4CC4)c3)CC2)c1 [Cpd 38, (R)-3-cyclopropyl-3-(3-(((1r,4R)-4-(2-fluoro-5-methoxyphenyl)cyclohexyl)methoxy)phenyl)propanoic acid] | 7.81 | – | 8.21 | –
CC(F)(C(=O)O)[C@H](c1cccc(OCC2CCC(c3cc(F)ncc3F)CC2)c1)C1CC1 (mixture of isomers) [Cpd 67, (3S)-3-Cyclopropyl-3-(3-((4-(2,5-difluoropyridin-4-yl)cyclohexyl)methoxy)phenyl)-2-fluoro-2-methylpropanoic acid] | 7.92 | – | 8.77 | –
COc1ccc(F)c([C@H]2CC[C@H](COc3cccc([C@H](C4CC4)C(C)C(=O)O)c3)CC2)c1 (single isomer, unassigned) [Cpd 51] | 8.31 | – | 8.66 | –
COc1ccc(F)c([C@H]2CC[C@H](COc3cccc(C(CC(=O)O)C4CC4)n3)CC2)c1 (mixture of isomers) [Cpd 13, 3-Cyclopropyl-3-(6-(((1r,4r)-4-(2-fluoro-5-methoxyphenyl)cyclohexyl)methoxy)pyridin-2-yl)propanoic acid] | 6.84 | – | 7.49 | –
COc1cc([C@H]2CC[C@H](COc3cc([C@H](C4CC4)C(C)(F)C(=O)O)ccn3)CC2)c(F)cn1 (stereo partly drawn) [Cpd 80, (3S)-3-Cyclopropyl-2-fluoro-3-(2-(((1r,4S)-4-(5-fluoro-2-methoxypyridin-4-yl)cyclohexyl)methoxy)pyridin-4-yl)-2-methylpropanoic acid] | 6.66 | – | 7.10 | –
